This note sets out measurements from patent publication US20250042912A1, “NOVEL NON-FLUORINATED QUINOLONE COMPOUND AND USE THEREOF” (priority 2021, published 2025).

Values after ≈ are worked out from the molar mass of the structure shown. Counter-ions that a name gives are not always drawn.

Common to all, as to type: cell-based
The subject of experiment [1] is Propionibacterium acnes ATCC 11827. Kind of experiment: Minimum inhibitory concentration (MIC) assay, Propionibacterium acnes ATCC 11827. The settings on record: Cutibacterium acnes, ATCC11827; anaerobic culture 35+/-2°C, 48 hours; read with naked eyes. The method, then:
(§1) On the day of the experiment, the compound in the flask was dissolved in 100% DMSO until the concentration of mother liquor was 0.4 mg/mL. If the mother liquor was not used on the same day, it was stored at −80° C. for future use. The compound mother liquor and standard antibiotics were subjected to 2-fold gradient dilution with corresponding solvents on a 96-microwell plate (V-bottom) to obtain 100× working solutions (Well 1 to Well 7) in sequence. Among them, the concentrations of the compound were 400 μg/mL, 200 μg/mL, 100 μg/mL, 50 μg/mL, 25 μg/mL, 12.5 μg/mL, 6.25 μg/mL, and 3.125 μg/mL. 100% DMSO was used as growth control (Well 8). As such, the compound motherplate was obtained. Two days before the experiment, anaerobic bacteria (Propionibacterium acnes) stored in a cryogenic tube at −80° C. were scribed on an MBA (Brucella Agar+5% (v/v) defibrillated sheep blood+[…] Hemin+1 μg/mLVitamin K1) plate. The anaerobic bacteria were placed in a 35+/−2° C. anaerobic incubator for 42-48 hours of cultivation. On the day of the experiment, the plate was taken out, clones were picked from the plate and suspended in physiological saline. Then, the turbidity of the bacterial suspension (containing 1.0-2.0×10^8 CFU/mL) was adjusted to OD600=0.2 by a turbidity meter. Then, the adjusted bacterial suspension was diluted to an appropriate concentration with the assay culture medium: about 5×10^5 CFU/mL for aerobic bacteria, and about 1×10^6 CFU/mL for anaerobic bacteria. As such, the inoculating solution was obtained. […] Therefore, the final assay concentrations of the compound were 4 μg/mL, 2 μg/mL, 1 μg/mL, 0.5 μg/mL, 0.25 μg/mL, 0.125 μg/mL, 0.06 μg/mL and 0.03 μg/mL. The total volume of each well on the assay plate was 200 μL: containing 1% DMSO, about 5×10^5 CFU/mL of aerobic bacteria and about 1×10^6 CFU/mL of anaerobic bacteria. All assay plates for aerobic bacteria were aerobically cultured at 35+/−2° C. for 16 to 20 hours, and all assay plates for anaerobic bacteria were anaerobically cultured in an anaerobic incubator at 35+/−2° C. for 48 hours. Note: for anaerobic bacteria, both the preparation of bacterial solution in step 2 and the inoculation of bacterial solution in step 3 were operated in an anaerobic workstation.

For experiment [2], the system named is Propionibacterium acnes ATCC 6919. Kind of experiment: Minimum inhibitory concentration (MIC) assay, Propionibacterium acnes ATCC 6919. As to conditions: Cutibacterium acnes, ATCC6919; anaerobic culture 35+/-2°C, 48 hours; read with naked eyes. The method, then: as §1
For experiment [3], the system named is Staphylococcus epidermidis ATCC 35983. Kind of experiment: Minimum inhibitory concentration (MIC) assay, Staphylococcus epidermidis ATCC 35983. As to conditions: ATCC35983, aerobic culture 35+/-2°C, 16 to 20 hours, read with naked eyes. Here is the method:
(§2) On the day of the experiment, the compound in the flask was dissolved in 100% DMSO until the concentration of mother liquor was 0.4 mg/mL. If the mother liquor was not used on the same day, it was stored at −80° C. for future use.
(§3) The compound mother liquor and standard antibiotics were subjected to 2-fold gradient dilution with corresponding solvents on a 96-microwell plate (V-bottom) to obtain 100× working solutions (Well 1 to Well 7) in sequence. Among them, the concentrations of the compound were 400 μg/mL, 200 μg/mL, 100 μg/mL, 50 μg/mL, 25 μg/mL, 12.5 μg/mL, 6.25 μg/mL, and 3.125 μg/mL. 100% DMSO was used as growth control (Well 8). As such, the compound motherplate was obtained.
(§4) One day before the experiment, aerobic bacteria (Staphylococcus epidermidis) stored in a cryogenic tube at −80° C. were scribed on an MHA (Cation-adjusted Mueller-Hinton agar) plate. The aerobic bacteria were placed in a 35+/−2° C. incubator for 18-24 hours of aerobic cultivation.
(§5) On the day of the experiment, the plate was taken out, clones were picked from the plate and suspended in physiological saline. Then, the turbidity of the bacterial suspension (containing 1.0-2.0×10^8 CFU/mL) was adjusted to OD600=0.2 by a turbidity meter. Then, the adjusted bacterial suspension was diluted to an appropriate concentration with the assay culture medium: about 5×10^5 CFU/mL for aerobic bacteria, and about 1×10^6 CFU/mL for anaerobic bacteria. As such, the inoculating solution was obtained.
(§6) 2 μl of 2-fold series dilution of 100× high-concentration working solution was transferred from a compound mother plate (prepared in step 1) to a round-bottom 96-well plate, and then 198 μL of bacterial inoculating solution (prepared in step 2) was added to each well to obtain an MIC assay plate. Therefore, the final assay concentrations of the compound were 4 μg/mL, 2 μg/mL, 1 μg/mL, 0.5 μg/mL, 0.25 μg/mL, 0.125 μg/mL, 0.06 μg/mL and 0.03 μg/mL. The total volume of each well on the assay plate was 200 μL: containing 1% DMSO, about 5×10^5 CFU/mL of aerobic bacteria and about 1×10^6 CFU/mL of anaerobic bacteria.
(§7) All assay plates for aerobic bacteria were aerobically cultured at 35+/−2° C. for 16 to 20 hours, and all assay plates for anaerobic bacteria were anaerobically cultured in an anaerobic incubator at 35+/−2° C. for 48 hours.

The subject of experiment [4] is Staphylococcus epidermidis ATCC 35984. The experiment is described as follows: Minimum inhibitory concentration (MIC) assay, Staphylococcus epidermidis ATCC 35984. The settings on record: ATCC35984, aerobic culture 35+/-2°C, 16 to 20 hours, read with naked eyes. The method, then: as §2, §3, §4, §5, §6, §7
The subject of experiment [5] is Staphylococcus epidermidis ATCC 12228. The experiment is described as follows: Minimum inhibitory concentration (MIC) assay, Staphylococcus epidermidis ATCC 12228. The settings on record: ATCC12228, aerobic culture 35+/-2°C, 16 to 20 hours, read with naked eyes. The method, then: as §2, §3, §4, §5, §6, §7

The term MIC denotes the smallest concentration in the dilution series that meets the test's criterion for growth inhibition. In the case of `O=C(O)c1cn(C2CC2)c2c3c(ccc2c1=O)-c1cnccc1COC3` [Trifluoroacetate of Compound 11], the minimum inhibitory concentration (MIC) in experiment [1] was determined as 0.25 µg/mL; in experiment [2], 0.5 µg/mL; in experiment [3] it was 0.06 µg/mL; in experiment [4], 0.125 µg/mL; in experiment [5], 0.03 µg/mL.
In the same order, the values of `Nc1cc2c(cn1)-c1ccc3c(=O)c(C(=O)O)cn(C4CC4)c3c1COC2` [Trifluoroacetate of Compound 7] are 0.25 µg/mL, 0.125 µg/mL, 0.03 µg/mL, 0.03 µg/mL and 0.06 µg/mL.
In the case of `CNc1cc2c(cn1)-c1ccc3c(=O)c(C(=O)O)cn(C4CC4)c3c1CCC2` [Trifluoroacetate of Compound 20], the MIC in experiment [1] was found to be 2 µg/mL; in experiment [2] it was 1 µg/mL; in experiment [3], 0.125 µg/mL; in experiment [4], 0.125 µg/mL; in experiment [5], 0.125 µg/mL.
With `NCCNc1cc2c(cn1)-c1ccc3c(=O)c(C(=O)O)cn(C4CC4)c3c1COC2` [Trifluoroacetate of Compound 19], the minimal inhibitory concentration (MIC) in experiment [1] was 2 µg/mL; in experiment [2], 2 µg/mL; in experiment [3], 1 µg/mL; in experiment [4] it was 1 µg/mL; in experiment [5] it was 2 µg/mL.
As for `CC1(C)OC[C@H](CNc2cc3c(cn2)-c2ccc4c(=O)c(C(=O)O)cn(C5CC5)c4c2COC3)O1` [Compound 26], the minimum inhibitory concentration (MIC) worked out at 0.5 µg/mL (≈ 1.05 µM) in experiment [1]; 0.5 µg/mL (≈ 1.05 µM) in experiment [2]; 0.25 µg/mL (≈ 0.524 µM) in experiment [3]; 0.25 µg/mL (≈ 0.524 µM) in experiment [4]; 0.25 µg/mL (≈ 0.524 µM) in experiment [5].
With `N=C(N)Nc1cc2c(cn1)-c1ccc3c(=O)c(C(=O)O)cn(C4CC4)c3c1COC2` [Trifluoroacetate of Compound 27], the minimal inhibitory concentration (MIC) was found to be 1 µg/mL in experiment [1]; 1 µg/mL in experiment [2]; 0.5 µg/mL in experiment [3]; 0.5 µg/mL in experiment [4]; 0.5 µg/mL in experiment [5].
In the case of `O=C(O)c1cn(C2CC2)c2c3c(ccc2c1=O)-c1cc2nc[nH]c2cc1COC3` [Compound 3], the MIC in experiment [1], in experiment [2], in experiment [3], in experiment [4] and in experiment [5] was 0.06 µg/mL (≈ 0.155 µM) in each case.
`Cc1cc2c(cn1)-c1ccc3c(=O)c(C(=O)O)cn(C4CC4)c3c1COC2` [Sodium salt of Compound 10]: the MIC in experiment [1] is 0.125 µg/mL; in experiment [2], 0.125 µg/mL; in experiment [3], 0.06 µg/mL; in experiment [4] it was not above 0.03 µg/mL; in experiment [5], 0.06 µg/mL.
On to `O=C(O)c1cn(C2CC2)c2c3c(ccc2c1=O)-c1c[nH]c(=O)cc1COC3` [Compound 21], for which the MIC in experiment [1] was found to be 1 µg/mL (≈ 2.74 µM); in experiment [2] it was 0.5 µg/mL (≈ 1.37 µM); in experiment [3], 1 µg/mL (≈ 2.74 µM); in experiment [4] it was 2 µg/mL (≈ 5.49 µM); in experiment [5] it was 1 µg/mL (≈ 2.74 µM).
On to `O=C(O)c1cn(C2CC2)c2c3c(ccc2c1=O)-c1cnc(NCc2ccccc2)cc1COC3` [Trifluoroacetate of Compound 15], for which the MIC in experiment [1] turned out to be 0.5 µg/mL; in experiment [2] it was 0.125 µg/mL; in experiment [3], 0.06 µg/mL; in experiment [4], 0.06 µg/mL; in experiment [5], 0.06 µg/mL.
`CNc1cc2c(cn1)-c1ccc3c(=O)c(C(=O)O)cn(C4CC4)c3c1C=CC2` [Compound 4]: the minimal inhibitory concentration (MIC) worked out at 0.5 µg/mL (≈ 1.34 µM) in experiment [1]; 0.5 µg/mL (≈ 1.34 µM) in experiment [2]; 0.125 µg/mL (≈ 0.335 µM) in experiment [3]; 0.06 µg/mL (≈ 0.161 µM) in experiment [4]; 0.125 µg/mL (≈ 0.335 µM) in experiment [5].
For `CNc1ccc2c(n1)COCc1c-2ccc2c(=O)c(C(=O)O)cn(C3CC3)c12` [Hydrochloride of Compound 1], the MIC in experiment [1] was 0.25 µg/mL; in experiment [2], 0.25 µg/mL; in experiment [3], 0.25 µg/mL; in experiment [4], 0.5 µg/mL; in experiment [5], 0.5 µg/mL.
For the compound `O=C(O)c1cn(C2CC2)c2c3c(ccc2c1=O)-c1cnc(NCCO)cc1COC3` [Trifluoroacetate of Compound 12], the MIC was 0.125 µg/mL in experiment [1]; 0.06 µg/mL in experiment [2]; 0.06 µg/mL in experiment [3]; 0.06 µg/mL in experiment [4]; 0.06 µg/mL in experiment [5].
